For test [1], the target named is Tyrosine-protein kinase receptor UFO (Homo sapiens) (UniProt P30530). The test is described as follows: Inhibition of wild-type human partial length AXL (R497 to Y821 residues) expressed in bacterial expression system at 1 uM by Kinomescan method relative to control.
In test [2] the target is Cyclin-dependent kinase-like 3 (Homo sapiens) (UniProt Q8IVW4). The test is described as follows: Inhibition of wild-type human partial length CDKL3 (M1 to D327 residues) expressed in bacterial expression system at 1 uM by Kinomescan method relative to control.
Sequence of Cyclin-dependent kinase-like 3 (Homo sapiens) (Q8IVW4 whole entry, looked up, the tested form may be a part): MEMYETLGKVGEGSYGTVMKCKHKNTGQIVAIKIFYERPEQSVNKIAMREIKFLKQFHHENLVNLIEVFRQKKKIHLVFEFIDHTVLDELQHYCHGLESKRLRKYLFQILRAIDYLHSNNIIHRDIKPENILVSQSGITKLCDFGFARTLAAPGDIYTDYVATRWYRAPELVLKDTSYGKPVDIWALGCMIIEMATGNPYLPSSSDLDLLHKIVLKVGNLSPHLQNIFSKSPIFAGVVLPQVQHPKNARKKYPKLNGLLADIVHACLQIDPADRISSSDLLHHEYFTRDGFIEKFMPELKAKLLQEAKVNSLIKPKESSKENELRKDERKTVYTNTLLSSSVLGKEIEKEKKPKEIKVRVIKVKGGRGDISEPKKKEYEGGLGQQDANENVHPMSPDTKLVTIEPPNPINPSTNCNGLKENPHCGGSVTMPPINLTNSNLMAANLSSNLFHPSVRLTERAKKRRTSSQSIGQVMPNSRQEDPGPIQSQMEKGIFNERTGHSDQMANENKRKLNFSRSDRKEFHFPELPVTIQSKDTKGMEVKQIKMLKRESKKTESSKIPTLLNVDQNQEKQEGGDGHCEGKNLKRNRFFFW
For test [3], the target named is Citron Rho-interacting kinase (Homo sapiens) (UniProt O14578). The test is described as follows: Inhibition of wild-type human partial length CIT (M68 to E432 residues) expressed in bacterial expression system at 1 uM by Kinomescan method relative to control.
For test [4], the target named is Serine/threonine-protein kinase 17B (Homo sapiens) (UniProt O94768). The test is described as follows: Inhibition of wild-type human full length DRAK2 (M1 to C372 residues) expressed in bacterial expression system at 1 uM by Kinomescan method relative to control.
Sequence of Serine/threonine-protein kinase 17B (Homo sapiens) (O94768 whole entry, the tested form may be a part): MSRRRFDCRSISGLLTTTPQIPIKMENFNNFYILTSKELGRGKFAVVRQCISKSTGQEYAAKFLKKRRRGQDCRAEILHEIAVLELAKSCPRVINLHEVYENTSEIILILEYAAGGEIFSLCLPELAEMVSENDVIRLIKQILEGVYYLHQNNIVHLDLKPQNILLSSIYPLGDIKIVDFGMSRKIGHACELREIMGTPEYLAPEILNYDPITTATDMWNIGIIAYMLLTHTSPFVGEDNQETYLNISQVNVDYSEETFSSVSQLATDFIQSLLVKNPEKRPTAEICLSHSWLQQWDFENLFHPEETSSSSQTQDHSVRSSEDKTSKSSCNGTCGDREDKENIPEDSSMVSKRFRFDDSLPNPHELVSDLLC
The target of test [5] is Glycogen synthase kinase-3 alpha (Homo sapiens) (UniProt P49840). The test is described as follows: Inhibition of wild-type human full length GSK3A (M1 to S483 residues) expressed in bacterial expression system at 1 uM by Kinomescan method relative to control.
Test [6] deals with Mast/stem cell growth factor receptor Kit (Homo sapiens), P10721 [V559D,T670I]. The test is described as follows: Inhibition of human partial length KIT V559D/T670I double mutant (Y545 to D952 residues) expressed in bacterial expression system at 1 uM by Kinomescan method relative to control.
Test [7] concerns the target Mitogen-activated protein kinase kinase kinase 1 (Homo sapiens) (UniProt Q13233). The test is described as follows: Inhibition of wild-type human partial length MAP3K1 (L1202 to W1512 residues) expressed in mammalian expression system at 1 uM by Kinomescan method relative to control.
Test [8] has as its target Mitogen-activated protein kinase kinase kinase kinase 3 (Homo sapiens) (UniProt Q8IVH8). In words: Inhibition of wild-type human partial length MAP4K3 (M1 to D301 residues) expressed in bacterial expression system at 1 uM by Kinomescan method relative to control.
For test [9], the system named is Phosphatidylinositol 4,5-bisphosphate 3-kinase catalytic subunit alpha isoform (Homo sapiens), P42336 [E545A]. The test is described as follows: Inhibition of human partial length PIK3CA E545A mutant (R108 to N1068 residues) expressed in mammalian expression system at 1 uM by Kinomescan method relative to control.
The target of test [10] is Phosphatidylinositol 5-phosphate 4-kinase type-2 beta (Homo sapiens) (UniProt P78356). In words: Inhibition of wild-type human full length PIP5K2B (M1 to T416 residues) expressed in bacterial expression system at 1 uM by Kinomescan method relative to control.
Test [11] deals with Proto-oncogene tyrosine-protein kinase receptor Ret (Homo sapiens) (UniProt P07949). The test is described as follows: Inhibition of wild-type human partial length RET (E713 to D1014 residues) expressed in bacterial expression system at 1 uM by Kinomescan method relative to control.
Sequence of Proto-oncogene tyrosine-protein kinase receptor Ret (Homo sapiens) (P07949 whole entry, the tested form may be a part): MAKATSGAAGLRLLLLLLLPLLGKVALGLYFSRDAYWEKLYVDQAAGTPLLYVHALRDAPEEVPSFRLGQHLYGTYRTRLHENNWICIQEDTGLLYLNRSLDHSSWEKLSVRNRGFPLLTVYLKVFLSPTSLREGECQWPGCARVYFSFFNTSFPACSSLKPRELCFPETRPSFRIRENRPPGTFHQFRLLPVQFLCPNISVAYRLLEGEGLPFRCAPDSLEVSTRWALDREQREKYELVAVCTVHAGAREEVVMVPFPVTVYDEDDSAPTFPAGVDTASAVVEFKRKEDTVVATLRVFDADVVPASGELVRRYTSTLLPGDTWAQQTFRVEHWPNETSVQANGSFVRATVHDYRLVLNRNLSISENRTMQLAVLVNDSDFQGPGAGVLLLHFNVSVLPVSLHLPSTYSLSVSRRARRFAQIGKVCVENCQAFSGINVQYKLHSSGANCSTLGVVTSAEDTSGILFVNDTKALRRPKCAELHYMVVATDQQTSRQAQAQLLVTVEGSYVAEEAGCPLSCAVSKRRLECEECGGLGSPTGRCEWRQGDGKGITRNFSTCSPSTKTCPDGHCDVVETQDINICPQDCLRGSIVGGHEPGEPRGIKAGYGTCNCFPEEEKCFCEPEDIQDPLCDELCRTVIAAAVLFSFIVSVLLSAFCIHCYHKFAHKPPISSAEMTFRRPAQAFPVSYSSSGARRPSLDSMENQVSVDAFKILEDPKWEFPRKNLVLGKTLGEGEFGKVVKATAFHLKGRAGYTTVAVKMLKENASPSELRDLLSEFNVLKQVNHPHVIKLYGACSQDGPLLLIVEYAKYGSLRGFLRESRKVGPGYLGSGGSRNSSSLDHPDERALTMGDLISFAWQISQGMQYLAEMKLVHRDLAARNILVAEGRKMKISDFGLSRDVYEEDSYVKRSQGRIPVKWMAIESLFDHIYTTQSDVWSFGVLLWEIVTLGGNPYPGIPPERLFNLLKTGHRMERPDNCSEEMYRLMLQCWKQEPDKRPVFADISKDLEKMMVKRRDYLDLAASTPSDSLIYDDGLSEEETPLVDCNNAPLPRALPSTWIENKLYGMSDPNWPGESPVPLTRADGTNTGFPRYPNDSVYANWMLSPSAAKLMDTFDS
Test [12] has as its target Dual specificity testis-specific protein kinase 1 (Homo sapiens) (UniProt Q15569). The test is described as follows: Inhibition of wild-type human full length TESK1 (R37 to S626 residues) expressed in bacterial expression system at 1 uM by Kinomescan method relative to control.
Test [13] deals with TGF-beta receptor type-1 (Homo sapiens) (UniProt P36897). In words: Inhibition of wild-type human partial length TGFBR1 (D179 to M503 residues) expressed in bacterial expression system at 1 uM by Kinomescan method relative to control.
The test system of test [14] is Tyrosine-protein kinase ABL1 (Homo sapiens), P00519 [Q252H]. In words: Inhibition of human non-phosphorylated ABL1 Q252H mutant (S229 to K512 residues) expressed in mammalian expression system at 10 uM by Kinomescan method relative to control.
Test [15] has as its target Calcium/calmodulin-dependent protein kinase type IV (Homo sapiens) (UniProt Q16566). In words: Inhibition of wild-type human partial length CAMK4 (A22 to A322 residues) expressed in bacterial expression system at 10 uM by Kinomescan method relative to control.
In test [16] the target is Cyclin-dependent kinase 13 (Homo sapiens) (UniProt Q14004). In words: Inhibition of wild-type human partial length CDC2L5 (H675 to S1054 residues) expressed in mammalian expression system at 10 uM by Kinomescan method relative to control.
The target of test [17] is Ephrin type-B receptor 3 (Homo sapiens) (UniProt P54753). The test is described as follows: Inhibition of wild-type human partial length EPHB3 (Q599 to T928 residues) expressed in bacterial expression system at 10 uM by Kinomescan method relative to control.
The target of test [18] is Mitogen-activated protein kinase 6 (Homo sapiens) (UniProt Q16659). The test is described as follows: Inhibition of wild-type human partial length ERK3 (M1 to P413 residues) expressed in bacterial expression system at 10 uM by Kinomescan method relative to control.
Test [19] deals with Rhodopsin kinase GRK1 (Homo sapiens) (UniProt Q15835). In words: Inhibition of wild-type human full length GRK1 (M1 to S563 residues) expressed in mammalian expression system at 10 uM by Kinomescan method relative to control.
The target in test [20] is Inhibitor of nuclear factor kappa-B kinase subunit epsilon (Homo sapiens) (UniProt Q14164). The test is described as follows: Inhibition of wild-type human full length IKK-epsilon (M1 to V716 residues) expressed in mammalian expression system at 10 uM by Kinomescan method relative to control.
Test [21] concerns Mast/stem cell growth factor receptor Kit (Homo sapiens), P10721 [V559D]. The test is described as follows: Inhibition of human partial length KIT V559D mutant (Y545 to D952 residues) expressed in bacterial expression system at 10 uM by Kinomescan method relative to control.
Test [22] deals with Mitogen-activated protein kinase kinase kinase 1 (Homo sapiens) (UniProt Q13233). In words: Inhibition of wild-type human partial length MAP3K1 (L1202 to W1512 residues) expressed in mammalian expression system at 10 uM by Kinomescan method relative to control.
Sequence of Mitogen-activated protein kinase kinase kinase 1 (Homo sapiens) (Q13233 whole entry, the tested form may be a part): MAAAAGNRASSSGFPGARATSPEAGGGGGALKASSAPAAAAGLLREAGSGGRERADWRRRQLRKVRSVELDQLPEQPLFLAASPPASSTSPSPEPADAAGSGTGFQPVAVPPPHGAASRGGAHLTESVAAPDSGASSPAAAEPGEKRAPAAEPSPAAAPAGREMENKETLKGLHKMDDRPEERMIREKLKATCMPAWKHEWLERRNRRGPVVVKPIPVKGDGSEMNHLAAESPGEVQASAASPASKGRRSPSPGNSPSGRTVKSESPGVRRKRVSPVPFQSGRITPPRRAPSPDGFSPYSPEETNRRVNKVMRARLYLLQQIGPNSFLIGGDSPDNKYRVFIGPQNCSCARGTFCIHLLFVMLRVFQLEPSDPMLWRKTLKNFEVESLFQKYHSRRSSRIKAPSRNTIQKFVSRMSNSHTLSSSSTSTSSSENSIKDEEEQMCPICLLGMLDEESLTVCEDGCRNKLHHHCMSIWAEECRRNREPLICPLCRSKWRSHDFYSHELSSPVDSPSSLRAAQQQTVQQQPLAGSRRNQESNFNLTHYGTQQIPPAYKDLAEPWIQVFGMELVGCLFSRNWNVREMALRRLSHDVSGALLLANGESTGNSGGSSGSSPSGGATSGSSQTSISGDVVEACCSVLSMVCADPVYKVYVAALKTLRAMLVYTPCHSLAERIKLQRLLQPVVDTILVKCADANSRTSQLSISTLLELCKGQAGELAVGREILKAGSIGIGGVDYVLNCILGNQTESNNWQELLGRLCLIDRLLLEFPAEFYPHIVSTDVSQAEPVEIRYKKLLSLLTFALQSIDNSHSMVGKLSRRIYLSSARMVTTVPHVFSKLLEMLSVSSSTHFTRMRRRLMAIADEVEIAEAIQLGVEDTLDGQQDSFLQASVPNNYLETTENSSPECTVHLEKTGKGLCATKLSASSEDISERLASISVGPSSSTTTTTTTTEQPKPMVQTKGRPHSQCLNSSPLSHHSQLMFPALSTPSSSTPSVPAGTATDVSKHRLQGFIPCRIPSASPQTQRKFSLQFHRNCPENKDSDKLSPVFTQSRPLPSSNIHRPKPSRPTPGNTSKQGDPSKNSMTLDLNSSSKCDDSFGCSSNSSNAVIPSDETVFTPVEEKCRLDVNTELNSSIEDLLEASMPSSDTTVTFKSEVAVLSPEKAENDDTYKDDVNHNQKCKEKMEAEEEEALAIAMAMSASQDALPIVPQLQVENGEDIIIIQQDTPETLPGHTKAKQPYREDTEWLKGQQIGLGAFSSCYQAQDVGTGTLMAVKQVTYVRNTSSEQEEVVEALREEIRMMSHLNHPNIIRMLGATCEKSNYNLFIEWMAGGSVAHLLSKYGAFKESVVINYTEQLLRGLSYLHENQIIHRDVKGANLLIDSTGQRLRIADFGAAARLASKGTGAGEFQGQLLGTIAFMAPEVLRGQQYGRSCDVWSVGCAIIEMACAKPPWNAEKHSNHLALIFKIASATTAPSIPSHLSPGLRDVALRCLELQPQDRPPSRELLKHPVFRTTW
Test [23] addresses Dual specificity mitogen-activated protein kinase kinase 5 (Homo sapiens) (UniProt Q13163). The test is described as follows: Inhibition of wild-type human partial length MEK5 (L98 to P448 residues) expressed in mammalian expression system at 10 uM by Kinomescan method relative to control.
For test [24], the target named is Mitogen-activated protein kinase kinase kinase 11 (Homo sapiens) (UniProt Q16584). The test is described as follows: Inhibition of wild-type human partial length MLK3 (I77 to W399 residues) expressed in bacterial expression system at 10 uM by Kinomescan method relative to control.
For test [25], the target named is Serine/threonine-protein kinase Nek1 (Homo sapiens) (UniProt Q96PY6). In words: Inhibition of wild-type human partial length NEK1 (M1 to K278 residues) expressed in bacterial expression system at 10 uM by Kinomescan method relative to control.
Sequence of Serine/threonine-protein kinase Nek1 (Homo sapiens) (Q96PY6 whole entry, the tested form may be a part): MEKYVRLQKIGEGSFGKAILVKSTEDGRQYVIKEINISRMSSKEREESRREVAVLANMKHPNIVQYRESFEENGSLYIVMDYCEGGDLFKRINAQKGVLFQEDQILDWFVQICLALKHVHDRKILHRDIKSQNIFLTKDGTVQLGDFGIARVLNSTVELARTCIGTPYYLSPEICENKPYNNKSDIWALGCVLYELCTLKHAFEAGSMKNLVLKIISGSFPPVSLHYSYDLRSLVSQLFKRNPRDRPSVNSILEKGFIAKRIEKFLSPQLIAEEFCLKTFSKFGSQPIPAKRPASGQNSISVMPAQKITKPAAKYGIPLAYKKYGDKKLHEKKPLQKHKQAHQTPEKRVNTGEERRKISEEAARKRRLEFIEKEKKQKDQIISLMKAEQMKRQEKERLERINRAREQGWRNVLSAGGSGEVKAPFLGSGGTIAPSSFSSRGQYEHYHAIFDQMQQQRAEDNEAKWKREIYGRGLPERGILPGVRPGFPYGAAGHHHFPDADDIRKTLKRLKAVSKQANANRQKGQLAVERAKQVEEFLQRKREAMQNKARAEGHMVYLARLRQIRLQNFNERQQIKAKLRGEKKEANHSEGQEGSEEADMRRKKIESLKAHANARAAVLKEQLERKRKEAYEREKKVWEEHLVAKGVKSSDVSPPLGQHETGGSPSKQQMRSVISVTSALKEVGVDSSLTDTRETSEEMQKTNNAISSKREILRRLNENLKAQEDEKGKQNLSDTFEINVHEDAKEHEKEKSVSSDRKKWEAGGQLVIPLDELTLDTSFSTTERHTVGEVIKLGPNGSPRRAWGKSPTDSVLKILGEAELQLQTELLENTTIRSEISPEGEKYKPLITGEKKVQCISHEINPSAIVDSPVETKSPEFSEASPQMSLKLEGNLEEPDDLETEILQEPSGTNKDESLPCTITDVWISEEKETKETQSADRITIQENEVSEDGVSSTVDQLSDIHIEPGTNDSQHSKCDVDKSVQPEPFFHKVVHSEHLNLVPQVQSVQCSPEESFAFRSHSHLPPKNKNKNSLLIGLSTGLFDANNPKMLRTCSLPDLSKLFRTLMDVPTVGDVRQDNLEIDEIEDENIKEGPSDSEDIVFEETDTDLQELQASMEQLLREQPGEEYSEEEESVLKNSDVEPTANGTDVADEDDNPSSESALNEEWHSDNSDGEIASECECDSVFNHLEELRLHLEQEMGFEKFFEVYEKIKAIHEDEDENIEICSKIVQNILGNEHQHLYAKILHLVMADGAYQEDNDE
For test [26], the target named is Cyclin-dependent kinase 16 (Homo sapiens) (UniProt Q00536). In words: Inhibition of wild-type human partial length PCTK1 (G160 to A474 residues) expressed in mammalian expression system at 10 uM by Kinomescan method relative to control.
In test [27] the target is Tyrosine-protein kinase TXK (Homo sapiens) (UniProt P42681). In words: Inhibition of wild-type human partial length TXK (L238 to W527 residues) expressed in bacterial expression system at 10 uM by Kinomescan method relative to control.

By inhibition is commonly meant the share of the control response that was lost under treatment.

For `O=C(Nc1cccc([C@@H]2CN(c3ncnc4[nH]ccc34)CCN2CCO)c1)Nc1c(F)cccc1N1CCCC1`, the inhibition in test [1] stood at 23%; in test [2], 100%; in [3], 64%; in [4], 73%; in test [5], 100%; in test [6], 64%. Also, the inhibition in test [7] was 70%; in test [8], 71%; in test [9], 65%; in test [10], 96%; in test [11], 0.3%; in [12] it was 100%. The same molecule registered an inhibition in test [13] of 71%.
Consider `O=C(Nc1cccc([C@H]2CCCN(c3ncnc4[nH]ccc34)C2)c1)Nc1ccccc1N1CCCC1`, for which the inhibition in test [14] stood at 25%; in [15], 100%; in test [16], 97%; in [17] it was 100%; in test [18], 100%; in test [19], 63%. The inhibition stood at 67% in test [20]; 0.15% in test [21]; 39% in test [22]; 18% in [23]; 85% in test [24]; 100% in test [25]. The inhibition in test [26] was 70%; in [27] it was 94%.

Source of the values: ChEMBL document CHEMBL4387741, “Optimization of novel reversible Bruton's tyrosine kinase inhibitors identified using Tethering-fragment-based screens” (Bioorg Med Chem, 2019).
